Measured values as given in PubChem BioAssay AID1845196 (Molecular Pharmacology Branch, DTP, NCI, 2023).

System: 292921-168-R tumor spheroid viability
Assay: Anticancer human tumor 292921-168-R patient-derived pancreatic carcinoma cell line growth inhibition
Conditions: spheroids with HUVEC and MSC; for viability, T/C: stronger effect = lower value
Excerpt: Multicellular complex tumor spheroid response to DNA repair inhibitors in combination with DNA-damaging drugs
This study explores the anticancer activities of DNA-damaging drugs and inhibitors of DNA damage repair, both as single agents and in combinations. Complex tumor spheroids comprised of malignant cells, endothelial cells and mesenchymal stem cells served as an in vitro model for human solid tumors. This model system incorporates physiologically relevant features and patient-derived or established malignant cell lines with clinically relevant genetic alterations from many tumor types. Twenty-six patient-derived or established malignant cell lines were evaluated representing sarcoma, melanoma, small cell lung cancer (SCLC), non-small cell lung cancer (NSCLC), as well as bladder, ovarian and pancreatic cancers. The concentration ranges selected for each drug and investigational agent were based upon clinically achievable concentrations if the clinical Cmax of the agent was known.
Compounds. The drugs and compounds olaparib (NSC753686), talazoparib (NSC767125), berzosertib (NSC777718), elimusertib (NSC800525), nedisertib (NSC802822), VX-984 (NSC792969), AZD-1390 (NSC803789), temozolomide (NSC362856), topotecan (NSC609699), trabectedin (NSC813783), staurosporine (NSC755774), and gemcitabine (NSC613327) were obtained from the National Cancer Institute (NCI) Developmental Therapeutics Program Chemical Repository. The FDA-approved anticancer drug set is available from the Developmental Therapeutics Program at https://dtp.cancer.gov/organization/dscb/obtaining/available_plates.htm. […] The stock solutions were prepared in dimethyl sulfoxide (DMSO, Sigma-Aldrich, St. Louis, MO, cat. D2650) at 400-fold the tested concentration and stored at -70 degrees C. Prior to their use, the stock solutions were diluted in fresh medium and the final DMSO concentration in the assay was 0.25% (v/v). All drugs and investigational agents were tested over a range starting from a high concentration at or near the clinical Cmax and decreasing in half-log increments. If the clinical Cmax for an agent had not been determined, the highest concentration tested was 10 microM.
Cell Lines. The patient-derived cancer cell (PDC) lines: 156681-154-R-J1-PDC, 283228-195-R-J1-PDC, 287954-098-R-J1-PDC, 292921-168-R-J2-PDC, 349418-098-R-PDC, 425362-245-T-J1-PDC, 556581-035-R-J1-PDC, and BL0293-F563-PDC were received from the NCI Patient-Derived Models Repository (PDMR, https://pdmr.cancer.gov). The established cell lines HS-SY-2 (RRID:CVCL_8719), MPNST, and SYO-1 (RRID:CVCL_7146) were obtained from the Sloan Kettering Institute. The alveolar soft parts sarcoma cell line ASPS-1 (RRID:CVCL_S738) was established at the NCI and grown from internal seed stocks. The following established cell lines were purchased from the American Type Culture Collection (ATCC, Manassas, VA): G-401 (ATCC, cat. CRL-1441, RRID:CVCL_0270), SW982 (ATCC, cat. HTB-93, RRID:CVCL_1734), VA-ES-BJ (ATCC, cat. CRL-2138, RRID:CVCL_1785), NCI-H719 (ATCC, cat. CRL-5837, RRID:CVCL_1582), NCI-H196 (ATCC, cat. CRL-5823, RRID:CVCL_1509), NCI-H841 (ATCC, cat. CRL-5845, RRID:CVCL_1595), NCI-H1618 (ATCC, cat. CRL-5879, RRID:CVCL_1480), NCI-H1876 (ATCC, cat. CRL-5902, RRID:CVCL_1503), DMS 114 (ATCC, cat. CRL-2066; RRID:CVCL_1174), NCI-H211 (ATCC, cat. CRL-5824; RRID:CVCL_1529), and SW 1271 (ATCC, cat. CRL-2177, RRID:CVCL_1716). The small cell lung cancer cell line COR-L88 was purchased from Sigma-Aldrich (cat. 92031917-1VL, RRID:CVCL_1141). The non-small cell lung cancer cell lines NCI-H226 (RRID:CVCL_1544) and NCI-H322M (RRID:CVCL_1557) were established at the NCI and grown from internal seed stocks. Pooled donor human umbilical vein endothelial cells (HUVEC, Lonza, cat. CC-2519) and human mesenchymal stem cells (hMSC, Lonza, cat. PT-2501) were purchased from Lonza (Walkersville, MD).
Cell Culture. All cells were maintained in an incubator at 37 degrees C and 5% CO2 with 95% humidity. […]

[1] = curve of first compound, second compound 30 pM
[2] = curve of first compound, second compound 94.9 pM
[3] = curve of first compound, second compound 0.0003 µM
[4] = curve of first compound, second compound 0.000949 µM
[5] = curve of first compound, second compound 0.003 µM
[6] = second compound 30 pM, first compound 0.0316 µM
[7] = second compound 30 pM, first compound 0.1 µM
[8] = second compound 30 pM, first compound 0.316 µM
[9] = second compound 30 pM, first compound 1 µM
[10] = second compound 30 pM, first compound 3.16 µM
[11] = second compound 30 pM, first compound 10 µM
[12] = second compound 94.9 pM, first compound 0.0316 µM
[13] = second compound 94.9 pM, first compound 0.1 µM
[14] = second compound 94.9 pM, first compound 0.316 µM
[15] = second compound 94.9 pM, first compound 1 µM
[16] = second compound 94.9 pM, first compound 3.16 µM
[17] = second compound 94.9 pM, first compound 10 µM
[18] = second compound 0.0003 µM, first compound 0.0316 µM
[19] = second compound 0.0003 µM, first compound 0.1 µM
[20] = second compound 0.0003 µM, first compound 0.316 µM
[21] = second compound 0.0003 µM, first compound 1 µM
[22] = second compound 0.0003 µM, first compound 3.16 µM
[23] = second compound 0.0003 µM, first compound 10 µM
[24] = second compound 0.000949 µM, first compound 0.0316 µM
[25] = second compound 0.000949 µM, first compound 0.1 µM
[26] = second compound 0.000949 µM, first compound 0.316 µM
[27] = second compound 0.000949 µM, first compound 1 µM
[28] = second compound 0.000949 µM, first compound 3.16 µM
[29] = second compound 0.000949 µM, first compound 10 µM
[30] = second compound 0.003 µM, first compound 0.0316 µM
[31] = second compound 0.003 µM, first compound 0.1 µM
[32] = second compound 0.003 µM, first compound 0.316 µM
[33] = second compound 0.003 µM, first compound 1 µM
[34] = second compound 0.003 µM, first compound 3.16 µM
[35] = second compound 0.003 µM, first compound 10 µM
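Note: spheroids exposed to compounds for 7 days.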

| Compound | IC50 [1] [nM] | IC50 [2] [nM] | IC50 [3] [nM] | IC50 [4] [nM] | IC50 [5] [nM] | viability, T/C [6] [%] | viability, T/C [7] [%] | viability, T/C [8] [%] | viability, T/C [9] [%] | viability, T/C [10] [%] | viability, T/C [11] [%] | viability, T/C [12] [%] | viability, T/C [13] [%] | viability, T/C [14] [%] | viability, T/C [15] [%] | viability, T/C [16] [%] | viability, T/C [17] [%] | viability, T/C [18] [%] | viability, T/C [19] [%] | viability, T/C [20] [%] | further results |
| --- | --- | --- | --- | --- | --- | --- | --- | --- | --- | --- | --- | --- | --- | --- | --- | --- | --- | --- | --- | --- | --- |
| CC1COCCN1c1cc(-c2ccnn2C)c2ccnc(-c3ccn[nH]3)c2n1 (stereo not given) + COc1cc2c(cc1O)CCNC21CSC2c3c(OC(C)=O)c(C)c4c(c3C(COC1=O)N1C(O)C3Cc5cc(C)c(OC)c(O)c5C(C21)N3C)OCO4 | < 31.6 | < 31.6 | < 31.6 | < 31.6 | < 31.6 | 17.2 | 10.9 | 10.4 | 13 | 14.3 | 16.4 | 10.2 | 7.28 | 8.41 | 11.8 | 13.9 | 16.9 | 4.54 | 4.77 | 5.09 | viability, T/C [21]: 8.72%; viability, T/C [22]: 10.4%; viability, T/C [23]: 12.7%; viability, T/C [24]: 1.76%; viability, T/C [25]: 1.36%; viability, T/C [26]: 2.19%; viability, T/C [27]: 2.16%; viability, T/C [28]: 1.68%; viability, T/C [29]: 2.07%; viability, T/C [30]: 0.19%; viability, T/C [31]: 0.16%; viability, T/C [32]: 0.17%; viability, T/C [33]: 0.16%; viability, T/C [34]: 0.16%; viability, T/C [35]: 0.37% |
| [2H]c1nc(C)nc([2H])c1-c1cc(NC[C@@H](C)c2cccc3c(C(=O)NC)ccnc23)ncn1 + COc1cc2c(cc1O)CCNC21CSC2c3c(OC(C)=O)c(C)c4c(c3C(COC1=O)N1C(O)C3Cc5cc(C)c(OC)c(O)c5C(C21)N3C)OCO4 | > 10000 | > 10000 | < 31.6 | < 31.6 | < 31.6 | 108 | 99.4 | 99.7 | 117 | 105 | 103 | 99.2 | 102 | 104 | 106 | 101 | 99.8 | 37.5 | 58.4 | 52.1 | viability, T/C [21]: 48.2%; viability, T/C [22]: 46%; viability, T/C [23]: 41%; viability, T/C [24]: 4.08%; viability, T/C [25]: 3.23%; viability, T/C [26]: 4.22%; viability, T/C [27]: 2.93%; viability, T/C [28]: 3.26%; viability, T/C [29]: 2.21%; viability, T/C [30]: 0.18%; viability, T/C [31]: 0.19%; viability, T/C [32]: 0.19%; viability, T/C [33]: 0.18%; viability, T/C [34]: 0.19%; viability, T/C [35]: 0.34% |
| COc1cc2c(cc1O)CCNC21CSC2c3c(OC(C)=O)c(C)c4c(c3C(COC1=O)N1C(O)C3Cc5cc(C)c(OC)c(O)c5C(C21)N3C)OCO4 (stereo not given) | – | – | – | – | – | – | – | – | – | – | – | – | – | – | – | – | – | – | – | – | viability, T/C (compound 94.9 pM): 101% [middle of 10 runs]; viability, T/C (compound 0.0003 µM): 41.8% [middle of 10 runs]; viability, T/C (compound 0.000949 µM): 3.57% [middle of 10 runs]; viability, T/C (compound 0.003 µM): 0.16% [middle of 5 runs]; IC50 (compound alone, run of 10/25/2019): 0.259 nM [middle of 10 runs] |
